Assay [1] deals with HEK293T viability, CellTiter-Glo ATP luminescence, 72 h. In words: ATP-based viability loss in HEK293T cells – cell-based, CellTiter-Glo luminescence, cherry-pick, set 3, cytotoxicity control, dose response (AID 720588).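 On AC35: potency for luminescence loss meaning cytotoxic compounds.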 In general terms: ATP-based viability assays read luminescence as a measure of living cells.
Experiment in assay [2]: as above
The conditions noted are these: HEK293T viability, CellTiter-Glo ATP luminescence, 72 h; at 26 µM (top of the series).

Calls of active or inactive are those of the source.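 How the source made its calls: active means fitted curve falls past a set limit of signal loss at no more than twice the top dose; inconclusive means flat fit between 30 and 70% signal loss, or poor fit; inactive means signal rise, flat within 30%, or crossing too high.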

Consider `C[C@@H]1CN([C@@H](C)CO)C(=O)c2cc(NC(=O)Nc3ccccc3)ccc2O[C@@H]1CN(C)Cc1ccc(C(=O)Nc2ccccc2N)cc1`, for which the AC35 in assay [1] was 8.46 µM. Take `COC(=O)C[C@H]1CC[C@@H]2[C@H](COc3ccc(NC(=O)Nc4cccc(Cl)c4)cc3C(=O)N2C)O1`: the AC35 in assay [1] was 17.8 µM. Still for that read-out and setting: the same measure for `COC(=O)Cc1[nH]n(-c2nc3ccccc3s2)c(=O)c1C(C)=Nc1ccc(OC)cc1`: 14 µM.

On to `COc1ccc(/C=C(/C(=O)c2cccs2)N2C=CC=CC2=C(C#N)C#N)cc1`, for which the AC35 in assay [1] was 6.97 µM. In the case of `C[C@H](CO)N1C[C@H](C)[C@H](CN(C)Cc2ccc(C(=O)Nc3ccccc3N)cc2)Oc2c(cccc2N(C)C)C1=O`, the AC35 in assay [1] is 11.3 µM. `COc1ccc(NC(=S)N=Nc2c(O)[nH]c3ccccc23)cc1`: in assay [1], the AC35 is 7.54 µM.

As for `Cn1ccc2cc(-c3ccc4ncnc(NCc5cccs5)c4c3)ccc21`, the AC35 in assay [1] is 9.58 µM. Take `Cc1ccc(/C=N/Nc2ccnc3cc(Cl)ccc23)c(C)c1`: the AC35 in assay [1] is 10.6 µM.

`Cc1ccc(C(=O)O/N=C(\N)c2ccccn2)cc1`: the AC35 in assay [1] was 14.9 µM. Still for that read-out and setting: with `COC(=O)CC1(C(=O)OC)Oc2ccc(Br)cc2C(=O)N1c1cccc(Cl)c1Cl` (configuration not stated) the figure was 13.1 µM; with `Cc1nc(N)nc(N)c1/C=C/C(C)(C)c1ccc(Cl)cc1`, 0.0229 µM. For `CC(C)CC#Cc1ccc([C@@H]2[C@@H](CO)N3CCCCN(S(=O)(=O)c4ccc(F)cc4)C[C@H]23)cc1`, the AC35 in assay [1] is 16.1 µM. On the same count and under the same terms, the same measure for `CC(C)(C)C(=O)Cn1ncc(Cl)c(Cl)c1=O`: 14.8 µM; for `C[C@]12CC[C@H](O)C[C@H]1CC[C@@H]1[C@@H]2C[C@@H](O)[C@]2(C)[C@@H](C3=CC(=O)OC3)CC[C@]12O`: 1.16 µM; for `C[C@@H]1CN([C@H](C)CO)C(=O)c2cccc(N(C)C)c2O[C@@H]1CN(C)Cc1ccc(C(=O)Nc2ccccc2N)cc1`: 11.7 µM.

For the compound `CC(=O)OC1CC(OC2C(O)CC(OC3C(O)CC(OC4CCC5(C)C(CCC6C5CC(O)C5(C)C(C7=CC(=O)OC7)CCC65O)C4)OC3C)OC2C)OC(C)C1OC1OC(CO)C(O)C(O)C1O` (configuration not stated), the AC35 in assay [1] is 0.182 µM.

`O=C1NC(=O)N(Cc2ccc(F)cc2)C(=O)/C1=C\C=C\c1ccco1`: the AC35 in assay [1] was 13.3 µM. On to `C[C@H]1CN([C@@H](C)CO)S(=O)(=O)c2ccc(C#CC(C)(C)O)cc2O[C@@H]1CN(C)Cc1ccc(-c2ccccc2)cc1`, for which, in assay [1], the AC35 is 3.6 µM. Take `OCC1OC(n2ccc3c2ncn2ncnc32)C(O)C1O` (configuration not stated): the AC35 in assay [1] is 14.6 µM. Consider `C(=N\Nc1nc2ccccc2[nH]1)/c1ccccn1`, for which the AC35 in assay [1] is 6.22 µM.

On to `COc1ccc(-c2ccc3c(c2)[C@H]2[C@H](CCN2S(=O)(=O)c2ccc(OC)cc2)[C@@H](CO)N3C)cc1`, for which the AC35 in assay [1] is 24.5 µM. For `CCc1ccc(/C=C2\SC(=S)N(CCCC(=O)N3CCN(C)CC3)C2=O)cc1`, the AC35 in assay [1] was 17.6 µM.

As for `BrC(=C\c1ccccc1)/C=N/n1cnnc1`, in assay [1], the AC35 was 17.8 µM.

As to `O=C(O)c1ccc(N/N=C/c2ccc3c(c2)OCO3)cc1`, the AC35 in assay [1] was 7.33 µM. For `C(=N\Nc1nc2ccccc2s1)/c1ccccn1`, the AC35 in assay [1] is 3.56 µM. Still for that read-out and setting: with `CCN(Cc1ccccc1)c1ccc(/C=N/N=C(N)N)cc1` the figure was 13.2 µM; with `COC1C(C)OC(OC2CC(C)(O)Cc3cc4c(c(O)c32)C(=O)c2c(O)cc3c(c2C4=O)OC2OC3(C)C(O)C(N(C)C)C2O)C(OC)C1(C)OC` (configuration not stated), 0.128 µM; with `CCN1/C(=C/C(C)=C/c2sc3ccccc3[n+]2CC)Sc2ccccc21`, 0.301 µM. Turning to `C[C@@H]1CN([C@@H](C)CO)C(=O)c2cc(NC(=O)c3ccccc3)ccc2O[C@@H](C)CCCCO[C@H]1CN(C)C(=O)Nc1cccc2ccccc12`, the AC35 in assay [1] is 0.637 µM. On the same count and under the same terms, the same measure for `Nc1nc(N)c(-c2cccc(C(F)(F)F)c2)c(Cc2cccc(C(F)(F)F)c2)n1`: 8.95 µM. As to `CN1C2CCC1/C(=C/c1ccccn1)C(=O)/C2=C\c1ccccn1`, the AC35 in assay [1] was 1.1 µM. Take `C[C@H]1O[C@@H](O[C@H]2[C@@H](O)C[C@H](O[C@H]3[C@@H](O)C[C@H](O[C@H]4CC[C@@]5(C)[C@H](CC[C@@H]6[C@@H]5C[C@@H](O)[C@]5(C)[C@@H](C7=CC(=O)OC7)CC[C@]65O)C4)O[C@@H]3C)O[C@@H]2C)C[C@H](O)[C@@H]1O`: the AC35 in assay [1] is 0.0823 µM. On to `C=CCOC(=O)c1sc(NC(=O)c2ccc(OC)cc2)nc1C`, for which the AC35 in assay [1] was 0.901 µM. For `O=C(NCc1ccc(F)cc1)N1[C@H]2CC[C@@H]1C=C(c1ccc(F)cc1OCc1ccccc1)C2`, the AC35 in assay [1] is 14.4 µM. `Cc1ccc(/C=N/Nc2ccc3ccccc3n2)o1`: the AC35 in assay [1] is 15.5 µM. For `CN(CCO)c1ccc(/C=N/Nc2nncc3ccccc23)cc1`, the AC35 in assay [1] is 13 µM. For the compound `C[C@@H]1CN([C@@H](C)CO)C(=O)Cc2cc(NC(=O)Nc3ccc(C(F)(F)F)cc3)ccc2O[C@@H]1CN(C)Cc1ccc(C(=O)Nc2ccccc2N)cc1`, the AC35 in assay [1] was 17.4 µM. For `C(=N\Nc1ccc2ccccc2n1)/c1ccc2c(c1)OCCO2`, the AC35 in assay [1] was 10.4 µM.

`O=C1c2ccccc2C(=O)c2cc(N3CCCCC3)ccc21`: the AC35 in assay [1] is 6.31 µM. Regarding `CCN1CCS/C1=C\C=C\C1=[N+](CC)CCS1`, the AC35 in assay [1] was 11.2 µM. As to `O=C1Nc2ccccc2C1=Nc1ccc(Br)cc1`, the AC35 in assay [1] was 14.1 µM. Turning to `CCCCC[C@H](C)N1C[C@H](COCc2ccccc2)Oc2cc(N3CC[C@@H](N(C)C)C3)ccc2S1(=O)=O`, the AC35 in assay [1] is 14.8 µM.

In the case of `C[C@@H]1CN([C@H](C)CO)C(=O)c2cc(C#CCN(C)C)cnc2O[C@H]1CN(C)Cc1ccc(-c2ccccc2)cc1`, the AC35 in assay [1] is 12.4 µM. With `COc1ccc(S(=O)(=O)Nc2ccc3c(c2)C(=O)N([C@H](C)CO)C[C@@H](C)[C@@H](CN(C)CC2CCCCC2)OCCCC[C@H](C)O3)cc1`, in assay [1], the AC35 is 14.1 µM. With `CCN1/C(=C/C=C/c2oc3ccc(-c4ccccc4)cc3[n+]2CC)Oc2ccc(-c3ccccc3)cc21`, the AC35 in assay [1] was 4.89 µM.

For `COc1cccc(-c2cccc(-c3nc(C(=O)NCC(F)(F)F)cc4c3[C@H](CCO)N([S@@](=O)C(C)(C)C)C4)c2)c1`, in assay [1], the AC35 was 23.5 µM. Take `CC1=NN(c2ccc(C)cc2)C(=O)/C1=C\C=C\c1ccccc1`: the AC35 in assay [1] was 14.3 µM.

For `COC(=O)C1=C(C)N(Cc2cccc(C(F)(F)F)c2)C(=NCc2ccc(OC)cc2)NC1c1cccc(F)c1` (configuration not stated), in assay [1], the AC35 is 4.96 µM.

As to `Cc1ccc(S(=O)(=O)Nc2ccc3c(c2)C(=O)N([C@@H](C)CO)C[C@@H](C)[C@@H](CN(C)Cc2ccc(C(=O)Nc4ccccc4N)cc2)O3)cc1`, in assay [1], the AC35 is 7.11 µM. For `C=C(C(=O)c1ccccc1)C(C(=C)C(=O)c1ccccc1)c1ccc(OC)cc1`, the AC35 in assay [1] was 5.68 µM. As for `C[C@@H]1CN([C@@H](C)CO)C(=O)c2cc(NS(=O)(=O)c3ccc(F)cc3)ccc2O[C@@H]1CN(C)Cc1ccc(C(=O)Nc2ccccc2N)cc1`, the AC35 in assay [1] is 7.54 µM. `C(=Cc1nc2ccccc2o1)c1ccc2c(c1)OCO2`: the AC35 in assay [1] was 2.47 µM. Regarding `Cc1ccc(C)c(S(=O)(=O)N2CCN(c3ncnc4sccc34)CC2)c1`, the AC35 in assay [1] was 4.95 µM.

Take `C[C@H](CO)N1C[C@H](C)[C@@H](CN(C)Cc2ccc(C(F)(F)F)cc2)OCCCC[C@H](C)Oc2ccc(NS(=O)(=O)c3ccc(F)cc3)cc2C1=O`: the AC35 in assay [1] is 15.1 µM. The same measure, in the same setting: with `C=C1C(=O)[C@@]23[C@H](O)C[C@@H]4C(C)(C)CC[C@H](O)[C@@]4(C)[C@@H]2CC[C@@H]1[C@H]3O` the figure was 6.9 µM; with `C[C@@H]1CN([C@H](C)CO)C(=O)c2cc(NC(=O)Nc3ccccc3)ccc2O[C@@H]1CN(C)Cc1ccc(C(=O)Nc2ccccc2N)cc1`, 12.7 µM; with `CCCCCCCCCCCCCCCCn1cc[n+](C)c1`, 10.5 µM. For `N#CC(=C1C=CC(=NO)C(Cl)=C1)c1ccccc1`, the AC35 in assay [1] was 11.2 µM. For `C[C@@H]1CN([C@@H](C)CO)C(=O)c2cc(N(C)C)ccc2O[C@H]1CN(C)Cc1ccc(C(=O)Nc2ccccc2N)cc1`, in assay [1], the AC35 was 24.6 µM. Take `O=C(Nc1ccc2c(c1)OCO2)N1C[C@@H]2N[C@H](C1)C2c1ccc(C=Cc2ccccc2)cc1` (some centres not stated): the AC35 in assay [1] is 9.59 µM. In the case of `N#CC(C#N)=C1C=CC=CN1/C(=C\c1ccco1)C(=O)c1ccc(Cl)cc1`, the AC35 in assay [1] is 3.47 µM. For `COc1ccc(-c2cc(CNc3nc(NC(C)C)nc4cc(-c5ccccc5)sc34)on2)cc1`, in assay [1], the AC35 was 12.5 µM.

Turning to `CCc1nc(N)nc(N)c1-c1ccc(Cl)cc1`, the AC35 in assay [1] is 15.9 µM. With `O=C(Nc1ccccc1F)N1CCCCN2[C@H](CO)[C@H](c3ccc(/C=C/c4ccccc4)cc3)[C@H]2C1`, the AC35 in assay [1] is 13.7 µM. On to `CN(C)c1ccc(C=c2c3ccccc3n3c2c2c([n+]3C)CCCC2)cc1`, for which the AC35 in assay [1] was 2.08 µM. As to `CCCN1C/C(=C/c2ccc3c(c2)OCO3)C(=O)/C(=C/c2ccc3c(c2)OCO3)C1`, the AC35 in assay [1] is 21.2 µM. In the case of `Cc1cc2c(C(C)C)c(O)c(O)c(C=O)c2c(O)c1-c1c(C)cc2c(C(C)C)c(O)c(O)c(C=O)c2c1O`, the AC35 in assay [1] is 9.42 µM. `CN(C[C@H]1N[C@@H](CO)[C@@H]1c1ccc(C2=CCCC2)cc1)C(=O)c1ccc(F)cc1`: the AC35 in assay [1] is 5.64 µM. For the compound `C[C@H]1CN([C@@H](C)CO)S(=O)(=O)c2ccc(C#Cc3ccncc3)cc2O[C@@H]1CN(C)C(=O)Nc1ccc2c(c1)OCO2`, the AC35 in assay [1] is 2.99 µM.

As to `CN1C(=O)c2cc(NC(=O)c3ccc(C(F)(F)F)cc3)ccc2OC[C@@H]2O[C@@H](CC(=O)NC3Cc4ccccc4C3)CC[C@H]21`, the activity change, negative = cytotoxicity in assay [2] is -32.5% (inactive).

With `CC1(CCc2ccccc2)NC(=O)N(CC(=O)N2CC(=O)Nc3ccccc32)C1=O` (configuration not stated), the activity change, negative = cytotoxicity in assay [2] is -7.05% (inactive).

As for `Cc1ccc(N=C2NC(=O)/C(=C\c3cccs3)S2)cc1C`, the activity change, negative = cytotoxicity in assay [2] was -13% (inactive). As to `CC(C)c1ccccc1NC(=O)COC(=O)CCN1C(=O)/C(=C\C=C\c2ccccc2)SC1=S`, in assay [2], the activity change, negative = cytotoxicity was -10.7% (inactive). In the case of `O=C(Nc1cccc(S(=O)(=O)N2CCCC2)c1)c1ccc(Cl)nc1`, the activity change, negative = cytotoxicity in assay [2] is -35.5% (inactive).

As for `COc1ccc2oc(C(=O)NCCc3ccccc3)c(C)c2c1`, in assay [2], the activity change, negative = cytotoxicity is -22.1% (inactive). Regarding `COc1ccc(/C=C2\SC(=O)N(CCCC(=O)Nc3ccc(C(=O)O)cc3)C2=O)cc1`, the activity change, negative = cytotoxicity in assay [2] is -14.1% (inactive). The same measure, in the same setting: with `Cc1nn(-c2ccc(F)cc2)c2nc(N)c(C#N)c(-c3ccc(O)c(O)c3)c12` the figure was -12.7% (inactive).

For the origin of these results see PubChem BioAssay AID720588 (Broad Institute, 2013).
